The subject of this assay is P388 leukemia. In words: NCI tumour cell line growth inhibition, 48 h.

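48-hour exposure; five concentrations; linearly interpolated endpoints. At the TGI there is no net growth.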 Bounds are passed on as bounds.

With `O=C(Cn1ccnc1[N+](=O)[O-])N(CCO)CCO`, the TGI was over 1250 µM.
`COC1/C=C/O[C@@]2(C)Oc3c(C)c(O)c4c(O)c(cc(O)c4c3C2=O)NC(=O)/C(C)=C\C=C\[C@H](C)C(O)[C@@H](C)[C@@H](O)[C@@H](C)[C@H](OC(C)=O)[C@@H]1C` (some centres not stated): the TGI was 31.2 µM.
